Molecular target: Mutant B-Raf (V600E) enzyme (MT B-Raf) (Homo sapiens, UniProt P15056, V600E)
Assay: B-Raf in vitro AlphaScreen assay
Assay type: biochemical
Conditions: phosphorylation of biotinylated HIS-MEK-AVI, 24 μM ATP in mix
Experimental: B-Raf In-vitro AlphaScreen Assay
MT B-Raf was expressed in insect cells and affinity purified by Ni^+2 agarose followed by Q-Sepharose chromatography. Typical yield was 1.08 mg/ml at >90% purity.
The phosphorylation of the MT B-Raf substrate in the presence and absence of the compound of interest was determined. Briefly, 5 μl of enzyme/substrate/adenosine triphosphate (ATP) mix consisting of 0.12 nM MT B-Raf, 84 nM biotinylated HIS-MEK-AVI, and 24 μM ATP in 1.2× buffer was preincubated with 2 μl of compound for 20 minutes at 25° C. Reactions were initiated with 5 μl of Metal mix consisting of 24 mM MgCl2 in 1.2× buffer and incubated at 25° C. for 60 minutes and reactions were stopped by addition of 5 μl of Detection mix consisting of 20 mM HEPES, 102 mM ethylenediamine tetraacetic acid, 1.65 mg/ml BSA, 136 mM NaCl, 3.4 nM Phospho-MEK1/2 (Ser217/221) antibody (Catalog #9121, Cell Signaling Technology, Mass.), 40 μg/ml Streptavidin donor beads (Perkin Elmer, Mass., Catalog #6760002), and 40 μg/ml Protein A acceptor beads (Perkin Elmer, Mass., Catalog #6760137). Plates were incubated at 25° C. for 18 hours in the dark. Phosphorylated substrate was detected by an EnVision plate reader (Perkin Elmer, Mass.) 680 nm excitation, 520-620 nm emission. Data was graphed and IC50s calculated using Excel Fit (Microsoft).

Chain of Mutant B-Raf (V600E) enzyme (MT B-Raf) (P15056 whole entry V600E): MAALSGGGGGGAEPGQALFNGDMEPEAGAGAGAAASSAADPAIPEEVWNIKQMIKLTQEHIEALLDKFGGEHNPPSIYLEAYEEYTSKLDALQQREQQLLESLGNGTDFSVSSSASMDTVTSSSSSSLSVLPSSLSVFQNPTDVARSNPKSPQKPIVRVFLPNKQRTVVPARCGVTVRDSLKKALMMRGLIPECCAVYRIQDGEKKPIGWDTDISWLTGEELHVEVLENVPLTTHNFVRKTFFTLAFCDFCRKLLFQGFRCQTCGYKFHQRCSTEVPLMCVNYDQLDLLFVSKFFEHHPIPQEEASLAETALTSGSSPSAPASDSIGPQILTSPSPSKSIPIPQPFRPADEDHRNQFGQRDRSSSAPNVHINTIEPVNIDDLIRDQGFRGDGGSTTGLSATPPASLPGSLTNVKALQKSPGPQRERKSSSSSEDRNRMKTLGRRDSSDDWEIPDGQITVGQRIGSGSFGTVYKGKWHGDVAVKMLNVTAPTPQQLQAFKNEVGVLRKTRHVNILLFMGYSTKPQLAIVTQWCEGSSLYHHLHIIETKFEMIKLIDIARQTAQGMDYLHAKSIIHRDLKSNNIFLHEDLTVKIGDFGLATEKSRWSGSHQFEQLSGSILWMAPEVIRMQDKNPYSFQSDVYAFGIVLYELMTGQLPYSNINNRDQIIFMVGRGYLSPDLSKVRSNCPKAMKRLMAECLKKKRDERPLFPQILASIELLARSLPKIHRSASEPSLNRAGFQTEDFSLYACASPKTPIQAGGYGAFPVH

Structure (SMILES)	IC50 [nM]
Cc1ccc(NC(=O)Nc2cccc(C(C)(C)C#N)c2)cc1Nc1ccc2ncn(C)c(=O)c2c1 [Example 6, N-[3-(1-Cyano-1-methylethyl)phenyl]-N′-{4-methyl-3-[(3-methyl-4-oxo-3,4-dihydroquinazolin-6-yl)amino]phenyl}urea]	99
Cc1ccc(NC(=O)Nc2ccc(Cl)c(Cl)c2)cc1Nc1ccc2ncn(C)c(=O)c2c1 [Example 2, N-(3,4-Dichlorophenyl)-N′-{4-methyl-3-[(3-methyl-4-oxo-3,4-dihydroquinazolin-6-yl)amino]phenyl}urea]	363
Cc1ccc(NC(=O)Nc2cccc(C(F)(F)F)c2)cc1Nc1ccc2ncn(C)c(=O)c2c1 [Example 1, N-{4-Methyl-3-[(3-methyl-4-oxo-3,4-dihydroquinazolin-6-yl)amino]phenyl}-N-′[3-(trifluoromethyl)phenyl]urea]	14.3

— patent US20090163525A1, “SUBSTITUTED QUINAZOLINES WITH ANTI-CANCER ACTIVITY” (ASTRAZENECA AB, priority 2006, published 2009)
